Like-named read-outs stand apart in the source and are kept apart here.
Key:
SLK = target: T1, SLK (Homo sapiens, UniProt Q9H2G2); assay: SelectScreen LanthaScreen Binding; details: INX-0315 at 100nM
T1 construct: purchased Thermo Fisher Scientific SelectScreen (plus Nanosyn / Reaction Biology for CDK/cyclin lines)
How it was run: (§1)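 Activity and binding formats were run as established by the profiling service; INX-315 entered at one concentration (100 nmol/L, 1% DMSO) before titration over a 1 µmol/L–0.0495 nmol/L range in ten steps.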

CDK5 (Inactive) = target: T2, CDK5 (Inactive) (Homo sapiens, UniProt Q00535); assay: SelectScreen LanthaScreen Binding; details: INX-0315 at 100nM
T2 construct: purchased Thermo Fisher Scientific SelectScreen (plus Nanosyn / Reaction Biology for CDK/cyclin lines)
How it was run: as §1

DMPK = target: T3, DMPK (Homo sapiens, UniProt Q09013); assay: SelectScreen LanthaScreen Binding; details: INX-0315 at 100nM
T3 construct: purchased Thermo Fisher Scientific SelectScreen (plus Nanosyn / Reaction Biology for CDK/cyclin lines)
How it was run: as §1

MAPK8 (JNK1) = target: T4, MAPK8 (JNK1) (Homo sapiens, UniProt P45983); assay: SelectScreen LanthaScreen Binding; details: INX-0315 at 100nM
T4 construct: purchased Thermo Fisher Scientific SelectScreen (plus Nanosyn / Reaction Biology for CDK/cyclin lines)
How it was run: as §1

STK32C (YANK3) = target: T5, STK32C (YANK3) (Homo sapiens, UniProt Q86UX6); assay: SelectScreen LanthaScreen Binding; details: INX-0315 at 100nM
T5 construct: purchased Thermo Fisher Scientific SelectScreen (plus Nanosyn / Reaction Biology for CDK/cyclin lines)
How it was run: as §1

BMPR1B (ALK6) = target: T6, BMPR1B (ALK6) (Homo sapiens, UniProt O00238); assay: SelectScreen LanthaScreen Binding; details: INX-0315 at 100nM
T6 construct: purchased Thermo Fisher Scientific SelectScreen (plus Nanosyn / Reaction Biology for CDK/cyclin lines)
How it was run: as §1

MAP3K10 (MLK2) = target: T7, MAP3K10 (MLK2) (Homo sapiens, UniProt Q02779); assay: SelectScreen LanthaScreen Binding; details: INX-0315 at 100nM
T7 construct: purchased Thermo Fisher Scientific SelectScreen (plus Nanosyn / Reaction Biology for CDK/cyclin lines)
How it was run: as §1

ACVRL1 (ALK1) = target: T8, ACVRL1 (ALK1) (Homo sapiens, UniProt P37023); assay: SelectScreen LanthaScreen Binding; details: INX-0315 at 100nM
T8 construct: purchased Thermo Fisher Scientific SelectScreen (plus Nanosyn / Reaction Biology for CDK/cyclin lines)
How it was run: as §1

RIPK2 = target: T9, RIPK2 (Homo sapiens, UniProt O43353); assay: SelectScreen LanthaScreen Binding; details: INX-0315 at 100nM
T9 construct: purchased Thermo Fisher Scientific SelectScreen (plus Nanosyn / Reaction Biology for CDK/cyclin lines)
How it was run: as §1

FLT3 ITD = assay: SelectScreen LanthaScreen Binding; details: INX-0315 at 100nM
How it was run: as §1

MCF7 Fulv-resistant = assay: Cell number dose-response; assay type: cell-based; details: Homo sapiens, MCF7, read-out: IC50 (nmol/L): MCF7
Excerpt: (§2) MCF7 abemaciclib-resistant cells were generated by continuous treatment with abemaciclib at a concentration of 250 nmol/L for 72 days, followed by 500 nmol/L for 48 days. MCF7 fulvestrant-resistant cells were generated by continuous treatment of 100 nmol/L Fulvestrant for 125 days. MCF7 abemaciclib/fulvestrant-resistant cells were generated by treating abemaciclib-resistant cells continuously with 100 nmol/L fulvestrant for 137 days. T47D abemaciclib-resistant lines were generated by continuous treatment with abemaciclib at a concentration of 500 nmol/L for 73 days. T47D fulvestrant–resistant cells were generated by continuous treatment with 100 nmol/L fulvestrant for 68 days. T47D abemaciclib/fulvestrant-resistant cells were generated by treating abemaciclib-resistant cells with continuous treatment of 100 nmol/L Fulvestrant for 60 days. Resistant cell lines were cultured in medium containing drug(s) that the line is resistant to and further authenticated using short tandem repeat profiling.
(§3) An exception to this is MCF7PDRCl5-1 cells which were first cultured for 5 days without palbociclib then plated as described. MCF7PDRCl5-1 cells were treated with either a dose curve of the indicated CDK4/6i or a dose curve of INX-315 + 1 µmol/L of the indicated CDK4/6i. Cell viability was determined using the CellTiter-Glo assay (Promega, G9241) following manufacturer's instructions. Plates were processed on either BioTek Synergy2 multi-mode (Agilent) or ClarioSTAR (BMG Labtech) plate readers. T47D and MCF7 cells were seeded into […] plates using BioTek 406 (Aglient) and treated with a ten-point dose concentration from 10 µmol/L to 0.3 nmol/L of INX-315 for 2× doubling times. Plates were fixed with 4% PFA and stained with Rhodamine-Phalloidin (Bio-Trend, 00027) and DAPI (5 mg/mL, Invitrogen, catalog no. D1306). Plates were imaged using CellInsight CX7 LZR and DAPI-positive cells were counted using Thermo Fisher Scientific HCS Studio Cell Analysis Software.

MCF7 Abema-resistant = assay: Cell number dose-response; assay type: cell-based; details: Homo sapiens, MCF7, read-out: IC50 (nmol/L): MCF7
Excerpt: as §2, §3

T47D Abema-resistant = assay: Cell number dose-response; assay type: cell-based; details: Homo sapiens, read-out: IC50 (nmol/L): T47D
Excerpt: as §2, §3

MCF7 Parent = assay: Cell number dose-response; assay type: cell-based; details: Homo sapiens
Excerpt: as §2, §3

T47D Parent = assay: Cell number dose-response; assay type: cell-based; details: Homo sapiens
Excerpt: as §2, §3

T47D Fulv-resistant = assay: Cell number dose-response; assay type: cell-based; details: Homo sapiens, read-out: IC50 (nmol/L): T47D
Excerpt: as §2, §3

T1 sequence (Q9H2G2 whole entry): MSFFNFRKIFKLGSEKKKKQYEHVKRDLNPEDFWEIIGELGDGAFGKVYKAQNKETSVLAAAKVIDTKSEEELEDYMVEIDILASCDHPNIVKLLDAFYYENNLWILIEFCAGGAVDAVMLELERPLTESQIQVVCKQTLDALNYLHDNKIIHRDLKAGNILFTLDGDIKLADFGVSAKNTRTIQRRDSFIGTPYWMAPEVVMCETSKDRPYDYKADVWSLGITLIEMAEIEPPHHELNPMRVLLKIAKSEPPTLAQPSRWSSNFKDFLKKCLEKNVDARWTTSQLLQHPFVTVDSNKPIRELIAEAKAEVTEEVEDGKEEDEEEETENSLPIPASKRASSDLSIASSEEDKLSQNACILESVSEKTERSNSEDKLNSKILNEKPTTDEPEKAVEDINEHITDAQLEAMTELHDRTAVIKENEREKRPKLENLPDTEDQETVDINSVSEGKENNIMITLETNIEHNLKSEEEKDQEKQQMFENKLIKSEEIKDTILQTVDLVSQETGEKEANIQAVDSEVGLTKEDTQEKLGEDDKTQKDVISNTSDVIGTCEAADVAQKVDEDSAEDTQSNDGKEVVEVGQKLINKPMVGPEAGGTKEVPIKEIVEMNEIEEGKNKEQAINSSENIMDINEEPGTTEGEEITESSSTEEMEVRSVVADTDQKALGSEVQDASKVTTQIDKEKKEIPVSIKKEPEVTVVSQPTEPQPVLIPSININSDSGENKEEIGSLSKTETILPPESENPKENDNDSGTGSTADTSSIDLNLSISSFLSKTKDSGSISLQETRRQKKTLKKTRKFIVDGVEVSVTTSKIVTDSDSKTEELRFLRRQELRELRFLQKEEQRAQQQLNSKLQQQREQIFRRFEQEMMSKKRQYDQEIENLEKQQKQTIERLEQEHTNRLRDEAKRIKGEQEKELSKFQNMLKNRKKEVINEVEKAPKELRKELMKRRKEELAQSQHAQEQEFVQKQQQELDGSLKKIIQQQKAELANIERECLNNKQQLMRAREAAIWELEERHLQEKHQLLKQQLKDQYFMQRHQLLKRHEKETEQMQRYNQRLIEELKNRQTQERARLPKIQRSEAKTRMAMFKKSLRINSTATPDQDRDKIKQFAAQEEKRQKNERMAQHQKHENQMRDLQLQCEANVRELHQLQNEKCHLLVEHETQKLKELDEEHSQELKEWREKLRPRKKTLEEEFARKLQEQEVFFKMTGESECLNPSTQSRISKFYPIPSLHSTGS
T5 sequence (Q86UX6 whole entry): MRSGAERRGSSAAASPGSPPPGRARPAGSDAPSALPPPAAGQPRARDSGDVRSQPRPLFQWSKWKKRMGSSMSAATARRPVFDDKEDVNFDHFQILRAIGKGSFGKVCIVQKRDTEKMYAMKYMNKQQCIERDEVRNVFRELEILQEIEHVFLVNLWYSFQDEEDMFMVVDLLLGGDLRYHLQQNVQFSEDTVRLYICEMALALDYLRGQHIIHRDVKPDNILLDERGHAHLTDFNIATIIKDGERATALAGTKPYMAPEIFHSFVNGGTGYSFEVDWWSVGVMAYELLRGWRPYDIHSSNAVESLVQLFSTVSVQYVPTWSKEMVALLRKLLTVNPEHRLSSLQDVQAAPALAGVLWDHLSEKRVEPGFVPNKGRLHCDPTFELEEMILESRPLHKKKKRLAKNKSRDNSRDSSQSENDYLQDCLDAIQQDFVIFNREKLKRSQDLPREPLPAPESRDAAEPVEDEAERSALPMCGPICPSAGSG
T2 sequence (Q00535 whole entry): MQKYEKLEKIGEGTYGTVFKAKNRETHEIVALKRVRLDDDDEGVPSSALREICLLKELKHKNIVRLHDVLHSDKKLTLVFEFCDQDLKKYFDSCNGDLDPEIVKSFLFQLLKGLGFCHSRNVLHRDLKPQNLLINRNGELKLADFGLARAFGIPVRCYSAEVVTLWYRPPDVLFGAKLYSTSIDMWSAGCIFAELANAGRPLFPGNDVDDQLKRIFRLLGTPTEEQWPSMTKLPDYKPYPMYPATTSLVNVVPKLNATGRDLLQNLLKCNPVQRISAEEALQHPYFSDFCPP
T4 sequence (P45983 whole entry): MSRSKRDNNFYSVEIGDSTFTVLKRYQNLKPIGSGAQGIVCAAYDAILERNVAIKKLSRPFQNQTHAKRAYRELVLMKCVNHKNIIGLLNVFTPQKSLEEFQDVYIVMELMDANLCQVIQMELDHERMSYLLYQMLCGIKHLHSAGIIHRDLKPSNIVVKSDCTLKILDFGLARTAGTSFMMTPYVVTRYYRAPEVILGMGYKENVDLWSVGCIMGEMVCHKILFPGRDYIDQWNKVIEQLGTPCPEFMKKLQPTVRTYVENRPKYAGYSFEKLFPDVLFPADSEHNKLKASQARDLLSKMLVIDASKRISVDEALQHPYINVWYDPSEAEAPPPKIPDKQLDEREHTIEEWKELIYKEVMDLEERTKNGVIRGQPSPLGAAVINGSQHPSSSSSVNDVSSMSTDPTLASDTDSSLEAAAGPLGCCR
T3 sequence (Q09013 whole entry): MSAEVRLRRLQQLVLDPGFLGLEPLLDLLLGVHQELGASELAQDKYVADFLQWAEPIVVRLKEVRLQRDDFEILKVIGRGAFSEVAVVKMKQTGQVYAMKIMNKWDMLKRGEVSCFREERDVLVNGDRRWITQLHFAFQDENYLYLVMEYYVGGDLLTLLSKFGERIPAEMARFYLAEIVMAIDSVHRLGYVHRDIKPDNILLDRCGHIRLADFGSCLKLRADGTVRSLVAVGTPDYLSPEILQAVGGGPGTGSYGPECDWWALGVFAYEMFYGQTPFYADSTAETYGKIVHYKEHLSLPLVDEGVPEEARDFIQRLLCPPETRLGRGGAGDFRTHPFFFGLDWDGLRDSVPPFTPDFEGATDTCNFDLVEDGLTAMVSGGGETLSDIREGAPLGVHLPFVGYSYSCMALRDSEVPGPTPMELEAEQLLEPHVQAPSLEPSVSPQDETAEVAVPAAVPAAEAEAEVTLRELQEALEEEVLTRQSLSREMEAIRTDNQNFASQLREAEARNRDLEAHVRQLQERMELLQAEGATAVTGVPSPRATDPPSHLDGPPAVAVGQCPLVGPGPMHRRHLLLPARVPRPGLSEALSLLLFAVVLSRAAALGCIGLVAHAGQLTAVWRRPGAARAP
T8 sequence (P37023 22-503): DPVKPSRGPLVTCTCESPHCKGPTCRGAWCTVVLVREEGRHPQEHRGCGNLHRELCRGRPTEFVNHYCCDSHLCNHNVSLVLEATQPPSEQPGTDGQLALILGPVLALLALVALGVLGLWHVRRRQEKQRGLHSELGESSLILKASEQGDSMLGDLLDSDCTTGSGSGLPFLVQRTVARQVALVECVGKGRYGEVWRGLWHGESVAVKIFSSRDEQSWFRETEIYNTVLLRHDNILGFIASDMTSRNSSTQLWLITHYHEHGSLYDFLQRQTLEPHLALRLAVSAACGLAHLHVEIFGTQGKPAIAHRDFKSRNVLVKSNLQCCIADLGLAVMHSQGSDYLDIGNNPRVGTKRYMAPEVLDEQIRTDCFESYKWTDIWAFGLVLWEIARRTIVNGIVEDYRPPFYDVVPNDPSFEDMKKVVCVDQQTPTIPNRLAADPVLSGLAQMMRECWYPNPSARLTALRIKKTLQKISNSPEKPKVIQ
T6 sequence (O00238 14-502): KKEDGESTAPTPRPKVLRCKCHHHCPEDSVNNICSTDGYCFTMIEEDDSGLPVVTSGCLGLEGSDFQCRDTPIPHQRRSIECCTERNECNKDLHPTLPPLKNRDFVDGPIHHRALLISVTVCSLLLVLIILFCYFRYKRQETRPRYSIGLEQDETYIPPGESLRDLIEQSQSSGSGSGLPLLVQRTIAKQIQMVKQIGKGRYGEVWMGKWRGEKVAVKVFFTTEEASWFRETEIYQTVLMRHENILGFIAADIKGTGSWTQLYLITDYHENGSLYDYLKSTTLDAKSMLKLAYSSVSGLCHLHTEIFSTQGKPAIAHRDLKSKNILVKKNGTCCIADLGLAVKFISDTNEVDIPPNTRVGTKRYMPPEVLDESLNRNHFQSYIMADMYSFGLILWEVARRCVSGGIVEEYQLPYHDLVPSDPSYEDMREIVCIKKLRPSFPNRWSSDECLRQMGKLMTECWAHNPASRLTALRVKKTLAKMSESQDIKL
T7 sequence (Q02779 whole entry): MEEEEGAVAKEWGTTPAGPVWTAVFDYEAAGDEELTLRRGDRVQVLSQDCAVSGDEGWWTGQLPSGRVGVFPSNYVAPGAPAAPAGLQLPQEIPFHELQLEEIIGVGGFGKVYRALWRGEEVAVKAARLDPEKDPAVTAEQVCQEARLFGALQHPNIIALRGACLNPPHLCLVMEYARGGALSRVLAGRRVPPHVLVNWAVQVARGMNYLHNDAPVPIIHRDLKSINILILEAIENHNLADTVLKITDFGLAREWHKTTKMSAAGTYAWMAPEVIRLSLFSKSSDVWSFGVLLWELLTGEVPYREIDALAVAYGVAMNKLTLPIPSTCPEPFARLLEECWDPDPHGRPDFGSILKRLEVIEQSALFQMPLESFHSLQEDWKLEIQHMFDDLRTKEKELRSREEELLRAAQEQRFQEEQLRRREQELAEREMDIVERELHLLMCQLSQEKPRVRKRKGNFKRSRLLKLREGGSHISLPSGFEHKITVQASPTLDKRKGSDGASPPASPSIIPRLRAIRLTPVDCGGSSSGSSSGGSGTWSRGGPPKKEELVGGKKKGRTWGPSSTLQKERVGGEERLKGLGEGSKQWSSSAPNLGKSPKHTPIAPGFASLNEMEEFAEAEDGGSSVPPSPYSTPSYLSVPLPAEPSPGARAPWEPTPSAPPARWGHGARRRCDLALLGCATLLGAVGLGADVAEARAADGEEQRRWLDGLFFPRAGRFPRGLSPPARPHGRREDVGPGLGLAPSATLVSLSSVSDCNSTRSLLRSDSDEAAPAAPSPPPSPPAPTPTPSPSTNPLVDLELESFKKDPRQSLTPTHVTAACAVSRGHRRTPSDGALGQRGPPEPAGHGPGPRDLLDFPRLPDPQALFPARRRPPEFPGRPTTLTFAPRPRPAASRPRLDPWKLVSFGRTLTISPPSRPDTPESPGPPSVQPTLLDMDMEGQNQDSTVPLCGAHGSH

## NS(=O)(=O)c1ccc(Nc2ncc3cc4n(c3n2)C2(CCCCC2)C(=O)NN4)cc1 [INX-315]
SLK
  inhibition at 0.1 µM: 22%
CDK5 (Inactive)
  inhibition at 0.1 µM: 80%
DMPK
  inhibition at 0.1 µM: 6%
MAPK8 (JNK1)
  inhibition at 0.1 µM: 18%
STK32C (YANK3)
  inhibition at 0.1 µM: -1%
BMPR1B (ALK6)
  inhibition at 0.1 µM: 1%
MAP3K10 (MLK2)
  inhibition at 0.1 µM: 8%
ACVRL1 (ALK1)
  inhibition at 0.1 µM: 2%
RIPK2
  inhibition at 0.1 µM: -1%
FLT3 ITD
  % Inhibition Avg: 36%
MCF7 Fulv-resistant
  IC50: 3470 nmol/L
MCF7 Abema-resistant
  IC50: 45 nmol/L
T47D Abema-resistant
  IC50: 7.4 nmol/L
MCF7 Parent; MCF7, read-out: IC50 (nmol/L): MCF7, Parent + abema: 500 nmol/L abemaciclib concurrently
  IC50: 515 nmol/L
MCF7 Parent; MCF7, read-out: IC50 (nmol/L): MCF7, Parent cells in DMSO
  IC50: 267 nmol/L
T47D Parent; read-out: IC50 (nmol/L): T47D, Parent + abema: 500 nmol/L abemaciclib concurrently
  IC50: 332 nmol/L
T47D Parent; read-out: IC50 (nmol/L): T47D, Parent cells in DMSO
  IC50: 360 nmol/L
T47D Fulv-resistant
  IC50: 106 nmol/L
